Counter-ions that a name gives are not always drawn.

The conditions of series [1]: cited from earlier work.
For series [2] the following is noted: single oral dose of 5 mg delayed release tablet, fasting.
Procedure: Male and female study participants (in equal proportions) were enrolled in the study. A total of 54 normal, healthy, adult, human study participants were enrolled. All subjects either received test product (test) or reference product (reference) in each period according to the randomization schedule after ensuring maintenance of pre-dose restrictions (fasting for 10 hours prior to administration in sitting posture with 240±2 mL of drinking water at ambient temperature).
A washout period of 7 days was observed between both study periods. Study restrictions with respect to fluid intake and sitting positions were implemented during the restriction periods throughout the study in all periods.
Study participants were instructed not to break, cut, and chew the tablet (test or reference) but to swallow whole and were asked to take it with the specified quantity of water. Water intake was not allowed for 1 hour before dosing until 1 hour after dosing except while administration of the dose. After dosing, the participants remained in sitting position for first two hours. On dosing days, meals were given as per the following schedule. […]
The actual post-dose time of collection was used in the calculation of the above pharmacokinetic parameters. Drug concentrations that are below limit of quantification (BLQ) were treated as “zero” in all pharmacokinetic and statistical calculations. […]
For series [3] the following is noted: cited from earlier work. This is another data set of the same source.

For `COc1ccc2c3c1OC1C[C@@H](OC(=O)c4ccccc4)C=C[C@@]31CCN(C)C2` (stereo partly drawn) [benzgalantamine, (4aS,6R,8aS)-4a,5,9,10,11,12-hexahydro-3-methoxy-11-methyl-6H[1]benzofuro[3a,3,2-ef][2]benzazepin-6 benzoate gluconate salt], the gastrointestinal adverse events result in series [1] (intranasal, twice daily dose of 11 mg) is reported as “No gastrointestinal adverse events were observed”. Also, the tolerability entry in series [1] (intranasal, up to a twice daily dose of 22 mg) was “well tolerated”. Moreover, in series [1] (nasal administration, previous studies), the “administered compound not cleaved to galantamine, observed in blood” value is recorded as “up to 10%”. In series [2], the “plasma benzgalantamine concentration profile after test tablet” value is recorded as “almost all values are zero or below limit of quantification (BLQ) at all times”.

Consider `COc1ccc2c3c1O[C@H]1C[C@@H](O)C=C[C@@]31CCN(C)C2` [galantamine, (4aS,6R,8aS)-3-Methoxy-11-methyl-4a,5,9,10,11,12-hexahydro-6H-benzofuro[3a,3,2-ef][2]benzazepin-6-ol], for which the “mean volume of distribution” value in series [3] (human, in vivo) is given as 175 L. Besides, the tmax result in series [3] (oral galantamine) is listed as “about 1 hour”.

The values above are taken from patent publication US12208167B1 (priority 2024, dated 2025).
